# Structures can show the parent of a compound that is named as a salt.
# How the values were obtained:
# [1] = biological target: Human recombinant PDE10A2 (Homo sapiens (Human), UniProt Q9Y233); assay: In vitro hPDE10a: human recombinant PDE10A2 scintillation proximity assay, IC50; assay type: biochemical; details: human recombinant PDE10A2, SPA, 60 nM cAMP; read-out: hPDE10a2 IC50
# Procedure, shortened: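 Purified recombinant human PDE10A2 (Ni-sepharose) was assayed by SPA, counting [3H]-AMP product captured on yttrium silicate beads added in zinc sulphate stop solution. Inhibition was expressed as % of activity without compound, with a no-enzyme low control. Repeat data points were aggregated.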
# [2] = biological target: Rat recombinant PDE10a (rPDE10a) (Rattus norvegicus (Rat), UniProt Q9QYJ6); assay: In vitro assay PDE10a: rat recombinant PDE10a SPA with 3H-cAMP substrate, IC50; assay type: biochemical; details: 60 nM cAMP, read-out: rPDE10a2 IC50
# Rat recombinant PDE10a (rPDE10a), sequence (Q9QYJ6 whole entry): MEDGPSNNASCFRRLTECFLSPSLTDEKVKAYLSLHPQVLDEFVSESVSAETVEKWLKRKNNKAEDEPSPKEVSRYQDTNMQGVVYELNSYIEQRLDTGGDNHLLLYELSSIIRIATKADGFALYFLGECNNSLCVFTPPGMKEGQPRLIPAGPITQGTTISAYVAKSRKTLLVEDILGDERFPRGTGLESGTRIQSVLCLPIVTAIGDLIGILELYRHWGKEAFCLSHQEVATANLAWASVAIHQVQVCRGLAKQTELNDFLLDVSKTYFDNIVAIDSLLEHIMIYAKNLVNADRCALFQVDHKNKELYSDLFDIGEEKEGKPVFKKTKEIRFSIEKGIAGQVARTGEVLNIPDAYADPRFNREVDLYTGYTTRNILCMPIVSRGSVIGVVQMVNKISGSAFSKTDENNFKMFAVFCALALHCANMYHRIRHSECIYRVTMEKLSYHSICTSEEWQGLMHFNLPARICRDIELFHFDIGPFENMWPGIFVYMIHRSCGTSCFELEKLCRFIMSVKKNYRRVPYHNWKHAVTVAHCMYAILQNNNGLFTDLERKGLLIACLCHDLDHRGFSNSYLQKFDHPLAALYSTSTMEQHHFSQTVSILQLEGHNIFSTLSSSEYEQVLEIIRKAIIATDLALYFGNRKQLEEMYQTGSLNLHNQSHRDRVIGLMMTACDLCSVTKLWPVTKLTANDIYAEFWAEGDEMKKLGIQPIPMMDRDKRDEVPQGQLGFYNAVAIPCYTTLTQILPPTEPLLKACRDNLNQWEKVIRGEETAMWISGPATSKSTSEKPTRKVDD
# Procedure, shortened: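 Enzyme expressed in Sf9 cells via baculovirus and Ni-sepharose purified; reaction with 3H-cAMP ran 60 min at rt, stopped with PDE SPA beads. Compounds diluted in DMSO at 100-fold final concentration; blanks omitted enzyme.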
# Human recombinant PDE10A2, sequence (Q9Y233 267-1055): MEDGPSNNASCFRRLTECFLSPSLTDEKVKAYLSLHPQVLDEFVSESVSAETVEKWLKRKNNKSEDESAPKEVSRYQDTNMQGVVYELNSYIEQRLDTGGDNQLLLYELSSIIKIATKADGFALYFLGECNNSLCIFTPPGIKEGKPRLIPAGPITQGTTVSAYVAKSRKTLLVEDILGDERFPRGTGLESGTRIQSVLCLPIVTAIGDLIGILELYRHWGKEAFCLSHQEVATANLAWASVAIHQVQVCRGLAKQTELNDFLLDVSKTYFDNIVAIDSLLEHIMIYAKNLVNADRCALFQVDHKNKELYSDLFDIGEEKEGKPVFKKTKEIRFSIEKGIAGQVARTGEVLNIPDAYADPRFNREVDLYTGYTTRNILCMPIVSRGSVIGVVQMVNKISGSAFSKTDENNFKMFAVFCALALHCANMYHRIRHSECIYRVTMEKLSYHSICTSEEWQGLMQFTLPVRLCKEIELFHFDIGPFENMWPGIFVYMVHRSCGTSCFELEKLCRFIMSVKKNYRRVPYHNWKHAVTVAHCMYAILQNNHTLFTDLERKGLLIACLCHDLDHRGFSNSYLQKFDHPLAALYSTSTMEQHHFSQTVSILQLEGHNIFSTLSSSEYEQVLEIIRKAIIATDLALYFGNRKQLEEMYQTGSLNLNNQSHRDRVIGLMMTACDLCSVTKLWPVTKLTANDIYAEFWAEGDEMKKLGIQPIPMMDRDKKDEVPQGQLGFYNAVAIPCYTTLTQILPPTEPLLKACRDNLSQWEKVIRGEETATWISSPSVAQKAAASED
SMILES,IC50 [1] [nM],IC50 [2] [nM]
"Clc1cc(N2CCOCC2)c2nc([C@H]3C[C@H](c4ccc5ccccc5n4)C3)cn2n1 [Cpd 130, 2-[trans-3-(6-Chloro-8-morpholin-4-ylimidazo[1,2-b]pyridazin-2-yl)cyclobutyl]quinoline]",19,30
"O=C(Nc1ccc2ccccc2n1)c1nc2c(N3CCOCC3)ccnn2c1-c1ccc(N2CCNCC2)nc1 [Cpd 3, 8-Morpholino-3-(6-(piperazin-1-yl)pyridin-3-yl)-N-(quinolin-2-yl)imidazo[1,2-b]pyridazine-2-carboxamide trifluoroacetic acid salt]",759,676
"O=C(O)CN1CCC(c2c(/C=C/c3ccc4ccccc4n3)nc3c(N4CCOCC4)ccnn23)CC1 [Cpd 29, (E)-2-(4-(8-Morpholino-2-(2-(quinolin-2-yl)vinyl)imidazo[1,2-b]pyridazin-3-yl)piperidin-1-yl)acetic acid trifluoroacetic acid salt]",39,49
"COc1cc(-c2c(CCc3ccc4ccccc4n3)nc3c(N4CCOCC4)ccnn23)ccc1C(=O)O [compound 69, 2-Methoxy-4-(8-morpholino-2-(2-(quinolin-2-yl)ethyl)imidazo[1,2-b]pyridazin-3-yl)benzoic acid]",6,4
"O=C(O)CCC(=O)Nc1ccc(-c2c(CCc3ccc4ccccc4n3)nc3c(N4CCOCC4)ccnn23)cc1 [compound 49, 4-((4-(8-Morpholino-2-(2-(quinolin-2-yl)ethyl)imidazo[1,2-b]pyridazin-3-yl)phenyl)amino)-4-oxobutanoic acid]",4,4
"c1ccc2ncc(OCCc3nc4c(N5CCOCC5)ccnn4c3-c3ccc(N4CCNCC4)nc3)cc2c1 [Cpd 14, 4-(3-(6-(Piperazin-1-yl)pyridin-3-yl)-2-(2-(quinolin-3-yloxy)ethyl)imidazo[1,2-b]pyridazin-8-yl)morpholine trifluoroacetic acid salt]",955,776
"O=C(O)c1ccc(-c2c(/C=C/c3nc4ccccc4s3)nc3c(N4CCOCC4)ccnn23)cc1 [Cpd 90, (E)-4-(2-(2-(Benzo[d]thiazol-2-yl)vinyl)-8-morpholinoimidazo[1,2-b]pyridazin-3-yl)benzoic acid]",19,17
"O=C(O)CCNc1ccc(-c2c(/C=C/c3ccc4ccccc4n3)nc3c(N4CCOCC4)ccnn23)cc1 [Cpd 93, (E)-3-(4-(8-Morpholino-2-(2-(quinolin-2-yl)vinyl)imidazo[1,2-b]pyridazin-3-yl)phenylamino)propanoic acid trifluoroacetic acid salt]",3,3
"O=C(O)c1ccc(-c2c(C#Cc3nc4ccccc4s3)nc3c(N4CCOCC4)ccnn23)cc1 [Cpd 87, 4-(2-(Benzo[d]thiazol-2-ylethynyl)-8-morpholinoimidazo[1,2-b]pyridazin-3-yl)benzoic acid]",1,1

# Continued, values first:
IC50 [1] [nM],IC50 [2] [nM],SMILES
9,5,"O=C(O)CNC(=O)c1ccc(-c2c(/C=C/c3ccc4ccccc4n3)nc3c(N4CCOCC4)ccnn23)cc1 [Cpd 66, (E)-2-(4-(8-Morpholino-2-(2-(quinolin-2-yl)vinyl)imidazo[1,2-b]pyridazin-3-yl)benzamido)acetic acid]"
126,457,"CN(C)c1ccc(-c2c(COc3ccc4ccccc4n3)nc3c(N4CCOCC4)ccnn23)cn1 [Cpd 5, N,N-dimethyl-5-(8-morpholino-2-((quinolin-2-yloxy)methyl)imidazo[1,2-b]pyridazin-3-yl)pyridin-2-amine methane sulfonic acid]"
2,2,"O=C(O)c1ccc(-c2c(C3CN(c4ccc5ccccc5n4)C3)nc3c(N4CCOCC4)ccnn23)cc1 [Cpd 157, 4-(8-Morpholino-2-(1-(quinolin-2-yl)azetidin-3-yl)imidazo[1,2-b]pyridazin-3-yl)benzoic acid]"
7,15,"O=C(O)C1CCC(Nc2c(/C=C/c3ccc4ccccc4n3)nc3c(N4CCOCC4)ccnn23)CC1 (centres unmarked) [Cpd 152, (E)-4-((8-Morpholino-2-(2-(quinolin-2-yl)vinyl)imidazo[1,2-b]pyridazin-3-yl)amino)cyclohexanecarboxylic acid]"
6,6,"Oc1ccc(-c2c(/C=C/c3ccc4ccccc4n3)nc3c(N4CCOCC4)ccnn23)cn1 [Cpd 16, (E)-5-(8-Morpholino-2-(2-(quinolin-2-yl)vinyl)imidazo[1,2-b]pyridazin-3-yl)pyridin-2-ol]"
< 1,< 1,"O=C(O)c1ccc(-c2c(C#Cc3nc4ccccc4[nH]3)nc3c(N4CCOCC4)ccnn23)cc1 [Cpd 108, 4-(2-((1H-Benzo[d]imidazol-2-yl)ethynyl)-8-morpholinoimidazo[1,2-b]pyridazin-3-yl)benzoic acid]"
41,33,"OC(c1ccc(-c2c(CCc3ccc4ccccc4n3)nc3c(N4CCOCC4)ccnn23)cc1)(C(F)(F)F)C(F)(F)F [compound 53, 1,1,1,3,3,3-Hexafluoro-2-(4-(8-morpholino-2-(2-(quinolin-2-yl)ethyl)imidazo[1,2-b]pyridazin-3-yl)phenyl)propan-2-ol]"
15,20,"Cn1nc(-c2ccc(-c3c(CCc4ccc5ccccc5n4)nc4c(N5CCOCC5)ccnn34)cc2)[nH]c1=O [Cpd 78, 1-Methyl-3-[4-[8-(morpholin-4-yl)-2-[2-(quinolin-2-yl)ethyl]imidazo[1,2-b]pyridazin-3-yl]phenyl]-4,5-dihydro-1H-1,2,4-triazol-5-one]"
3,1,"O=C(O)CCNC(=O)c1ccc(-c2c(CCc3ccc4ccccc4n3)nc3c(N4CCOCC4)ccnn23)cc1 [compound 46, 3-(4-(8-Morpholino-2-(2-(quinolin-2-yl)ethyl)imidazo[1,2-b]pyridazin-3-yl)benzamido)propanoic acid]"
5,6,"O=c1ncn(-c2ccc(-c3c(CCc4ccc5ccccc5n4)nc4c(N5CCOCC5)ccnn34)cc2)[nH]1 [Cpd 59, 1-(4-(8-Morpholino-2-(2-(quinolin-2-yl)ethyl)imidazo[1,2-b]pyridazin-3-yl)phenyl)-1,2-dihydro-1,2,4-triazol-3-one trifluoroacetic acid salt]"
53,82,"O=C(O)c1ccc2ccc(/C=C/c3cn4nc(Cl)cc(N5CCOCC5)c4n3)nc2c1 [Cpd 94, 2-[(E)-2-(6-Chloro-8-morpholin-4-ylimidazo[1,2-b]pyridazin-2-yl)ethenyl]quinoline-7-carboxylic acid]"
1,2,"O=C(O)c1ccc(Nc2c(/C=C/c3ccc4ccccc4n3)nc3c(N4CCOCC4)ccnn23)c(F)c1 [Cpd 139, (E)-3-Fluoro-4-((8-morpholino-2-(2-(quinolin-2-yl)vinyl)imidazo[1,2-b]pyridazin-3-yl)amino)benzoic acid]"
22,20,"O=C(O)c1ccc(-c2c(C#Cc3ccc(C(F)(F)F)cn3)nc3c(N4CCOCC4)ccnn23)cc1 [Cpd 97, 4-(8-Morpholino-2-((5-(trifluoromethyl)pyridin-2-yl)ethynyl)imidazo[1,2-b]pyridazin-3-yl)benzoic acid]"
